Assay results: patent US20250186442A1, “Obicetrapib and Ezetimibe Combination Treatment and Fixed Dose Pharmaceutical Compositions” (NewAmsterdam Pharma B.V., priority 2022, published 2025)

Legend:
Solubility in water = type: physicochemical; conditions: in water at 20° C.
Excerpt: Solubility is especially challenging with obicetrapib. […] It would be desirable to have a solid form of obicetrapib that would deliver a larger amount of obicetrapib.

Lp(a) = conditions: TA-8995-06; following 12 weeks of treatment; cited from earlier work
[1] = patients; daily dosing of 10 mg for 12 weeks, alone and with 2 different statins; cited from earlier work
HDL-C = conditions: TA-8995-03; 10 mg daily dose, mild dyslipidemia; cited from earlier work

For `CCOC(=O)N1c2ccc(C(F)(F)F)cc2[C@@H](N(Cc2cc(C(F)(F)F)cc(C(F)(F)F)c2)c2ncc(OCCCC(=O)O)cn2)C[C@H]1CC` [Obicetrapib, {4-[(2-{[3,5-bis(trifluoromethyl)benzyl][(2R,4S)-1-(ethoxycarbonyl)-2-ethyl-6-(trifluoromethyl)-1,2,3,4-tetrahydroquinolin-4-yl]amino}pyrimidin-5-yl)oxy]butanoic acid}], the solubility (Solubility in water) is listed as < 100 µg/mL, the “Lp(a) levels” value (Lp(a)) is listed as “statistically significant reduction” and the tolerability [1] is listed as “well tolerated”. For the same molecule, the HDL-C efflux capacity (HDL-C) was “significant increase” and the HDL-C increase (HDL-C) was 179.0%.
